Laboratory results as given in patent US20260092071A1, “COMPOUNDS AND COMPOSITIONS AS SMARCA2/4 DEGRADERS AND USES THEREOF” (REGENTS OF THE UNIVERSITY OF MICHIGAN, priority 2022, published 2026).

Key:
[1] = biological target: SMARCA2 (Homo sapiens, UniProt P51531); assay: HiBit assay in engineered HT1080 CRISPR knock-in cell, 6 hrs (B series), SMARCA2; format: cell-based; settings: 6 hrs incubation; for DC50: HT1080 CRISPR knock-in cells, read-out: SMARC A2 HT1080 HiBit DC50; for Dmax: HT-1080, HT1080 CRISPR knock-in cells, read-out: SMARC A2 HT1080 HiBit Dmax (%)
In short: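 Protein abundance is measured in HiBiT-tagged HT1080 CRISPR knock-in cells after a 6 hr compound treatment (0.1% DMSO) by lytic Nano-Glo HiBiT luminescence.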

[2] = biological target: SMARCA4 (Homo sapiens, UniProt P51532); assay: HiBit assay in engineered HT1080 CRISPR knock-in cell, 6 hrs (B series), SMARCA4; format: cell-based; settings: 6 hrs incubation; for DC50: HT1080 CRISPR knock-in cells, read-out: SMARC A4 HT1080 HiBit DC50; for Dmax: HT-1080, HT1080 CRISPR knock-in cells, read-out: SMARC A4 HT1080 HiBit Dmax(%)
In short: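 Engineered HT1080 knock-in cells, 2000 cells/well, 6 hrs compound exposure, 37° C/5% CO2, 0.1% DMSO final. Lytic detection: LgBiT 1:100 plus HiBiT substrate 1:50 in lytic buffer, 10 min shake at RT, luminescence read.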

Chain of SMARCA4 (P51532 whole entry): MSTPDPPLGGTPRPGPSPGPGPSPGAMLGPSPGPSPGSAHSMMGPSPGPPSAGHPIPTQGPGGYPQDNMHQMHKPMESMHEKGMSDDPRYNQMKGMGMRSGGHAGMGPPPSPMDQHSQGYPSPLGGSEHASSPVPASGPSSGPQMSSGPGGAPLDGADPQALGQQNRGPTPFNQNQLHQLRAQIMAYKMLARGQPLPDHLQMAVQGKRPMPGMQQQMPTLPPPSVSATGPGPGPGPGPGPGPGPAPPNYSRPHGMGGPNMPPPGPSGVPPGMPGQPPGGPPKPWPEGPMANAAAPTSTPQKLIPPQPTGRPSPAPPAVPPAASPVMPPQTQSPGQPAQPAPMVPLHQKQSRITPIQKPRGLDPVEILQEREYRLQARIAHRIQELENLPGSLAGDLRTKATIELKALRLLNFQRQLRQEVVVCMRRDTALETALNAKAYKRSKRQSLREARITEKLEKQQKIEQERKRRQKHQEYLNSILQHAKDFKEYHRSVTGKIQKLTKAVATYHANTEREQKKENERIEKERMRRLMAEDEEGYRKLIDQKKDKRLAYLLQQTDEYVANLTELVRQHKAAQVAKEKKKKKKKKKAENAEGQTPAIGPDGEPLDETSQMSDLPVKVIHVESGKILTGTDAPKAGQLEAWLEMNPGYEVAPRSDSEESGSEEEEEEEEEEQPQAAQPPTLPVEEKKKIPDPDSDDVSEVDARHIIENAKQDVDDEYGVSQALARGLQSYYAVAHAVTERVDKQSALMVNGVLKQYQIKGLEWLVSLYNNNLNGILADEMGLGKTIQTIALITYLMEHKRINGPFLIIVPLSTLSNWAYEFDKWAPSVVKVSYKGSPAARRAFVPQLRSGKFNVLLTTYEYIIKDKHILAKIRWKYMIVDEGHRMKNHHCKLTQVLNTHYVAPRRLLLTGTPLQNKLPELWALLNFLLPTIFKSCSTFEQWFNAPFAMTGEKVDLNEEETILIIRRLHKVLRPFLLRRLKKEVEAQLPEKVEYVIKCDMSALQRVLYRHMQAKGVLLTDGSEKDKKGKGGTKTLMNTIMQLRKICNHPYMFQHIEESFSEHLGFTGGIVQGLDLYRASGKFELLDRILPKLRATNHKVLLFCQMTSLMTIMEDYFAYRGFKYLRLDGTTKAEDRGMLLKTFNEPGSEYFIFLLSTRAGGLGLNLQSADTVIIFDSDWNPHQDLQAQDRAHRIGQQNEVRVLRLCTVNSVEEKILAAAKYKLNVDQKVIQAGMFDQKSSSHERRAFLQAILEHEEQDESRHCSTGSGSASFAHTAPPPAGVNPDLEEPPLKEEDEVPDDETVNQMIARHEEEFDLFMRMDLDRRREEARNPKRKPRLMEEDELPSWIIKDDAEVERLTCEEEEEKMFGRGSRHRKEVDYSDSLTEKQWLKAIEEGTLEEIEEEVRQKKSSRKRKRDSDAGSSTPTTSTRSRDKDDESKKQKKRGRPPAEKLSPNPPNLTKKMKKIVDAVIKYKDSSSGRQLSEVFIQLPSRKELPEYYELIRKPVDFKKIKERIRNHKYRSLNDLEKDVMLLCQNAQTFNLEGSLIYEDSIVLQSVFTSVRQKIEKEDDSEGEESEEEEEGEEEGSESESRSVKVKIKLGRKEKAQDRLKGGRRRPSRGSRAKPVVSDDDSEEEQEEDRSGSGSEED
Chain of SMARCA2 (P51531 whole entry): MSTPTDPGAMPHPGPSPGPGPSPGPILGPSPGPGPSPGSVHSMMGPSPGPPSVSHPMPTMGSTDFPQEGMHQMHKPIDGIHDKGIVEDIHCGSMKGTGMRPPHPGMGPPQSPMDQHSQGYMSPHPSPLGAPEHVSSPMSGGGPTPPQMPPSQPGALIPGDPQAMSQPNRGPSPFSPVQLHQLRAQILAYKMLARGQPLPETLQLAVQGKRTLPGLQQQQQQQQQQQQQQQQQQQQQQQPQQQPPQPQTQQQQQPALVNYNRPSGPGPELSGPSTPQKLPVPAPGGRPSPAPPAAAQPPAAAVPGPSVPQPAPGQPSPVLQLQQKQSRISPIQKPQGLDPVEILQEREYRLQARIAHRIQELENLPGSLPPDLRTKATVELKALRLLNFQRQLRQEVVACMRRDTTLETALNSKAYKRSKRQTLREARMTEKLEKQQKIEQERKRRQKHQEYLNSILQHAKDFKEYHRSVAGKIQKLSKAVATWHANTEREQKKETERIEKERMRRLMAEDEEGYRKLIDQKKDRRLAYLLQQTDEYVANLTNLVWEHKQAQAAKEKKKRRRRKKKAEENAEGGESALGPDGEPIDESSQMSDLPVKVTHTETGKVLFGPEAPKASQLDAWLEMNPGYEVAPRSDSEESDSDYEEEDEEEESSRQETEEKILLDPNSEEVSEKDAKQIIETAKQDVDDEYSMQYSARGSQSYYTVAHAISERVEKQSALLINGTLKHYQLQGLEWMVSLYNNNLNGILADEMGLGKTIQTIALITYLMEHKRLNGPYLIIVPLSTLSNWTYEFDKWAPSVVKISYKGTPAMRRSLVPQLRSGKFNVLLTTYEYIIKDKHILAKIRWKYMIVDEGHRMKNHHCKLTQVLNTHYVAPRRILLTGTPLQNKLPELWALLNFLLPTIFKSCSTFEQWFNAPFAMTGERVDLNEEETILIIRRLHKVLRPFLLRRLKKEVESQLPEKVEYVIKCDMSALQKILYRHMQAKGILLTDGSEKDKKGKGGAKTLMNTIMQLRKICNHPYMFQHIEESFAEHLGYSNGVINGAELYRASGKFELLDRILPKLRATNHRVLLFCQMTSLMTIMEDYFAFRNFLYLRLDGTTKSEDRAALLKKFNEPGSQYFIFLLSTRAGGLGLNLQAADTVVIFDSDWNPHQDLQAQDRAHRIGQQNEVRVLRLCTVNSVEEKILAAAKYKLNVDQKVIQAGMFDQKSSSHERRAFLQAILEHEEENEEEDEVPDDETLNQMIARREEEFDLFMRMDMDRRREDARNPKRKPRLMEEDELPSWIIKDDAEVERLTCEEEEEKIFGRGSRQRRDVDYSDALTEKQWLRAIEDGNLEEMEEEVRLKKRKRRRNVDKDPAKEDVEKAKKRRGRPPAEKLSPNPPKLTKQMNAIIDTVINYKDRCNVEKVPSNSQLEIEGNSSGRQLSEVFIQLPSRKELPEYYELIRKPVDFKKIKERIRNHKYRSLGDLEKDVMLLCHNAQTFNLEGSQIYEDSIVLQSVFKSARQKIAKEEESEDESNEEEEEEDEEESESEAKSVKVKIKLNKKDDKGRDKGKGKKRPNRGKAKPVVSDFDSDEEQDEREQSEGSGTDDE

Structure (SMILES) | DC50 [1] | Dmax [1] | DC50 [2] | Dmax [2]
Cc1ncsc1-c1ccc([C@H](C)NC(=O)[C@@H]2C[C@@H](O)CN2C(=O)[C@@H](NC(=O)CCCCn2cc(-c3ccc4c(c3)-n3c(nc(=O)c5c(Cl)cccc53)C4(C)C)cn2)C(C)(C)C)cc1 [Compound B64, (2S,4R)-1-((S)-2-(5-(4-(4-chloro-7,7-dimethyl-5-oxo-5,7-dihydroindolo[1,2-a]quinazolin-10-yl)-1H-pyrazol-1-yl)pentanamido)-3,3-dimethylbutanoyl)-4-hydroxy-N-((S)-1-(4-(4-methylthiazol-5-yl)phenyl)ethyl)pyrrolidine-2-carboxamide] | 100 to 500 nM | < 50% | > 1000 nM | < 50%
Cc1ncsc1-c1ccc([C@H](CC(=O)NC2CCC(N3CCC(c4ccc5c(c4)-n4c(nc(=O)c6c(Cl)cccc64)C5(C)C)CC3)CC2)NC(=O)[C@@H]2C[C@@H](O)CN2C(=O)[C@@H](NC(=O)C2(F)CC2)C(C)(C)C)cc1 (stereo partly drawn) [Compound B31, (2S,4R)—N—((S)-3-((4-(4-(4-chloro-7,7-dimethyl-5-oxo-5,7-dihydroindolo[1,2-a]quinazolin-10-yl)piperidin-1-yl)cyclohexyl)amino)-1-(4-(4-methylthiazol-5-yl)phenyl)-3-oxopropyl)-1-((S)-2-(1-fluorocyclopropane-1-carboxamido)-3,3-dimethylbutanoyl)-4-hydroxypyrrolidine-2-carboxamide] | 100 to 500 nM | 70 to 90% | 100 to 500 nM | < 50%
C[C@H](NC(=O)[C@@H]1C[C@@H](O)CN1C(=O)[C@@H](NC(=O)[C@H]1CC[C@H](C(=O)N2CCC(c3ccc4c(c3)-n3c(nc(=O)c5c(Cl)cccc53)C4(C)C)CC2)CC1)C(C)(C)C)c1ccc(-c2ncnn2C)cc1 [Compound B65, (2S,4R)-1-((S)-2-((1r,4S)-4-(4-(4-chloro-7,7-dimethyl-5-oxo-5,7-dihydroindolo[1,2-a]quinazolin-10-yl)piperidine-1-carbonyl)cyclohexane-1-carboxamido)-3,3-dimethylbutanoyl)-4-hydroxy-N-((S)-1-(4-(1-methyl-1H-1,2,4-triazol-5-yl)phenyl)ethyl)pyrrolidine-2-carboxamide] | 100 to 500 nM | < 50% | > 1000 nM | < 50%

Continued, values first:

DC50 [1] | Dmax [1] | DC50 [2] | Dmax [2] | Structure (SMILES)
< 100 nM | > 90% | < 100 nM | > 90% | Cc1ncsc1-c1ccc([C@H](C)NC(=O)[C@@H]2C[C@@H](O)CN2C(=O)[C@@H](c2cc(OC3CCC(CN4CCC(c5ccc6c(c5)C(C)(C)c5nc(=O)c7c(Cl)cccc7n5-6)CC4)CC3)no2)C(C)C)cc1 (stereo partly drawn) [Compound B30, (2S,4R)-1-((R)-2-(3-((4-((4-(4-chloro-7,7-dimethyl-5-oxo-5,7-dihydroindolo[1,2-a]quinazolin-9-yl)piperidin-1-yl)methyl)cyclohexyl)oxy)isoxazol-5-yl)-3-methylbutanoyl)-4-hydroxy-N-((S)-1-(4-(4-methylthiazol-5-yl)phenyl)ethyl)pyrrolidine-2-carboxamide]
< 100 nM | > 90% | < 100 nM | 50 to 69% | CC(=O)c1ccc([C@H](C)NC(=O)[C@@H]2C[C@@H](O)CN2C(=O)[C@H](C(C)C)n2cc([C@H]3CC[C@H](CN4CCC(c5ccc6c(c5)-n5c(nc(=O)c7c(Cl)cccc75)C6(C)C)CC4)CC3)nn2)cc1 [Compound B134, (2S,4R)-N-((S)-1-(4-acetylphenyl)ethyl)-1-((S)-2-(4-((1r,4S)-4-((4-(4-chloro-7,7-dimethyl-5-oxo-5,7-dihydroindolo[1,2-a]quinazolin-10-yl)piperidin-1-yl)methyl)cyclohexyl)-1H-1,2,3-triazol-1-yl)-3-methylbutanoyl)-4-hydroxypyrrolidine-2-carboxamide]
